Results published in patent publication US20140073639A1 (priority 2012, published 2014).
In brackets after ≈: the same amount, converted by molar mass.

Key:
[1] = format: cell-based
S. MRSA = assay: microbe, parasite or virus in culture; format: cell-based; conditions: for inhibition at 3 µM / inhibition at 10 µM / inhibition at 30 µM: Staphylococcus aureus, MRSA; for inhibition at 3 µM: read-out: S. MRSA 3 μM (growth inhibition); for inhibition at 10 µM: read-out: S. MRSA 10 μM (growth inhibition); for inhibition at 30 µM: read-out: S. MRSA 30 μM (growth inhibition)
B. Anthracis = assay: microbe, parasite or virus in culture; format: cell-based; conditions: for inhibition at 3 µM / inhibition at 10 µM / inhibition at 30 µM: Bacillus anthracis; for inhibition at 3 µM: read-out: B. Anthracis 3 μM (growth inhibition); for inhibition at 10 µM: read-out: B. Anthracis 10 μM (growth inhibition); for inhibition at 30 µM: read-out: B. Anthracis 30 μM (growth inhibition)

| Structure (SMILES) | MIC, 25% Serum [1] | MIC, No Serum [1] | inhibition at 10 µM (S. MRSA) | inhibition at 30 µM (S. MRSA) | inhibition at 10 µM (B. Anthracis) | inhibition at 30 µM (B. Anthracis) | also measured |
| --- | --- | --- | --- | --- | --- | --- | --- |
| O=C(O)C(Cc1ccccc1)N1C(=O)/C(=C\c2ccco2)NC1=S (stereo not drawn) [Cmpd 62] | >250 µM | >250 µM | – | – | – | – | – |
| O=C([O-])C(Cc1ccccc1)N1C(=O)/C(=C\c2ccc(-c3ccc(Cl)c(Cl)c3)o2)NC1=S.[Na+] (stereo not drawn) [Cmpd 65] | >250 µM | 7.8 µM | – | – | – | – | S. MRSA 3 μM (growth inhibition) (S. MRSA): 0.9; S. MRSA 10 μM (growth inhibition) (S. MRSA): 104.72; S. MRSA 30 μM (growth inhibition) (S. MRSA): 105.68; B. Anthracis 3 μM (growth inhibition) (B. Anthracis; 3 μM): 108.67; B. Anthracis 10 μM (growth inhibition) (B. Anthracis): 107.86; B. Anthracis 30 μM (growth inhibition) (B. Anthracis): 104.01 |
| CNC(=O)c1ccc(-c2ccc(/C=C3/NC(=S)N(C(Cc4ccccc4)C(=O)O)C3=O)o2)cc1 (stereo not drawn) [Cmpd 81] | >250 µM | >250 µM | – | – | – | – | – |
| COc1ccc(-c2ccc(/C=C3/NC(=S)N([C@@H](Cc4ccccc4)C(=O)O)C3=O)o2)cc1Cl [Cmpd 52] | >250 µM | 62.5 µM (≈ 30.2 µg/mL) | -11.7% | 82.2% | 27.3% | 95.5% | inhibition at 3 µM (S. MRSA): -7.99%; inhibition at 3 µM (B. Anthracis; 3 μM): -5.68% |
| O=C([O-])C(Cc1ccccc1)N1C(=O)/C(=C\c2ccc(-c3ccc(Cl)c(Cl)c3)o2)NC1=S.[Na+] (stereo not drawn) [Cmpd 66] | >250 µM | 7.8 µM | – | – | – | – | S. MRSA 3 μM (growth inhibition) (S. MRSA): 0.9 |
| CNC(=O)c1ccc(-c2ccc(/C=C3/NC(=S)N(C(Cc4ccccc4)C(=O)O)C3=O)o2)cc1Cl (stereo not drawn) [Cmpd 85] | >250 µM | >250 µM | – | – | – | – | – |
| O=C(O)C(Cc1ccccc1)N1C(=O)CNC1=S (stereo not drawn) [Cmpd 61] | >250 µM | >250 µM | – | – | – | – | – |
| CNC(=O)c1cc(-c2ccc(/C=C3/NC(=S)N(C(Cc4ccccc4)C(=O)O)C3=O)o2)ccc1Cl (stereo not drawn) [Cmpd 83] | >250 µM | >250 µM | – | – | – | – | – |
| C=CCN1C(=O)/C(=C\c2ccc(-c3ccc(Cl)c(Cl)c3)o2)NC1=S [Cmpd 86] | >250 µM | >250 µM | – | – | – | – | – |
| O=C(O)c1cc(-c2ccc(/C=C3/NC(=S)N(C(Cc4ccccc4)C(=O)O)C3=O)o2)ccc1Cl (stereo not drawn) [Cmpd 74] | >250 µM | >250 µM | – | – | – | – | – |
| O=C(O)C(Cc1ccccc1)N1C(=O)/C(=C\c2cc3cc(Br)ccc3o2)NC1=S (stereo not drawn) [Cmpd 91] | >250 µM | 125 µM (≈ 58.9 µg/mL) | – | – | – | – | – |
| O=C(O)CN1C(=O)N/C(=C/c2ccc(-c3ccc(Cl)c(Cl)c3)o2)C1=O [Cmpd 79] | >250 µM | >250 µM | – | – | – | – | – |
| COc1cc(/C=C2/NC(=S)N(C(Cc3ccccc3)C(=O)O)C2=O)c(Cl)c(Cl)c1O (stereo not drawn) [Cmpd 90] | >250 µM | >250 µM | – | – | – | – | – |
| O=C(O)c1cccc(N2C(=O)/C(=C\c3ccc(-c4ccc(Cl)c(Cl)c4)o3)NC2=S)c1 [Cmpd 77] | >250 µM | 31.3 µM (≈ 14.4 µg/mL) | – | – | – | – | – |
| CNC(=O)c1ccc(Cl)c(-c2ccc(/C=C3/NC(=S)N(C(Cc4ccccc4)C(=O)O)C3=O)o2)c1Cl (stereo not drawn) [Cmpd 82] | >250 µM | >250 µM | – | – | – | – | – |
| CNC(=O)C(Cc1ccccc1)N1C(=O)/C(=C\c2ccc(-c3ccc(Cl)c(Cl)c3)o2)NC1=S (stereo not drawn) [Cmpd 56] | >250 µM | >250 µM | – | – | – | – | – |
| O=C(O)C(Cc1ccccc1)N1C(=O)/C(=C\c2ccc(-c3ccc(Cl)nc3Cl)o2)NC1=S (stereo not drawn) [Cmpd 73] | >250 µM | 125 µM (≈ 61 µg/mL) | – | – | – | – | – |
| O=C1NC(=S)N/C1=C/c1ccc(-c2ccc(Cl)c(Cl)c2)o1 [Cmpd 63] | >250 µM | 62.5 µM (≈ 21.2 µg/mL) | – | – | – | – | – |
| O=C(O)C(Cc1ccccc1)N1C(=O)/C(=C\c2ccc(-c3ccc(Cl)c(Cl)c3)[nH]2)NC1=S (stereo not drawn) [Cmpd 75] | >250 µM | 62.5 µM (≈ 30.4 µg/mL) | – | – | – | – | – |
| O=C(O)C(Cc1ccccc1)N1C(=O)/C(=C\c2ccc(-c3cc(Cl)nc(Cl)c3)o2)NC1=S (stereo not drawn) [Cmpd 80] | >250 µM | 62.5 µM (≈ 30.5 µg/mL) | – | – | – | – | – |

| Structure (SMILES) | MIC, 25% Serum [1] | MIC, No Serum [1] | inhibition at 10 µM (S. MRSA) | inhibition at 30 µM (S. MRSA) | inhibition at 10 µM (B. Anthracis) | inhibition at 30 µM (B. Anthracis) | also measured |
| --- | --- | --- | --- | --- | --- | --- | --- |
| O=C(O)CC(C(=O)O)N1C(=O)/C(=C2/C(=O)Nc3ccc(Br)cc32)SC1=S (stereo not drawn) [Cmpd 21] | – | – | -2.11% | -2.11% | 13.1% | 14.2% | inhibition at 3 µM (S. MRSA): -6.99%; inhibition at 3 µM (B. Anthracis; 3 μM): 15.8% |
| C=CCN1C(=O)/C(=C\c2cc(OC)c(O)c(Cl)c2Cl)NC1=S [Cmpd 89] | >250 µM | 250 µM (≈ 89.8 µg/mL) | – | – | – | – | – |
| O=C(O)C(Cc1ccccc1)N1C(=O)/C(=C\c2oc(Cl)nc2Cl)NC1=S (stereo not drawn) [Cmpd 84] | >250 µM | >250 µM | – | – | – | – | – |
| O=C1Nc2ccc(Br)cc2/C1=C1/SC(=S)N(C(Cc2ccccc2)C(=O)O)C1=O (stereo not drawn) [Cmpd 13] | – | – | – | – | – | 90.1% | S. MRSA 10 μM (growth inhibition) (S. MRSA): −0.58; S. MRSA 30 μM (growth inhibition) (S. MRSA): 30.29; B. Anthracis 10 μM (growth inhibition) (B. Anthracis): 10.27 |
| CC(C)C(C(=O)O)N1C(=O)/C(=C2/C(=O)Nc3ccccc32)SC1=S (stereo not drawn) [Cmpd 17] | – | – | – | – | – | – | S. MRSA 10 μM (growth inhibition) (S. MRSA): 14.85; S. MRSA 30 μM (growth inhibition) (S. MRSA): 46.76; B. Anthracis 10 μM (growth inhibition) (B. Anthracis): −2.28; B. Anthracis 30 μM (growth inhibition) (B. Anthracis): 7.03 |
| CC(C)[C@H](C(=O)O)N1C(=O)C[C@H](NC(=O)c2cocc2-c2ccc(Cl)cc2)C1=O [Cmpd 87] | >250 µM | >250 µM | – | – | – | – | – |
| CCc1ccccc1N1C(=O)/C(=C/c2ccc(-c3cc(C(=O)O)ccc3Cl)o2)C(=O)NC1=S [Cmpd 24] | – | – | 2.2% | -5.88% | -4.63% | -10.8% | inhibition at 3 µM (S. MRSA): -2.94%; inhibition at 3 µM (B. Anthracis; 3 μM): -10.8% |
| C=CCN1C(=O)/C(=C\c2cc(OCC)c(O)c(Br)c2Cl)NC1=S [Cmpd 88] | >250 µM | >250 µM | – | – | – | – | – |
| O=C1NC(=S)NC(=O)C1=Cc1ccc(Br)s1 [Cmpd 1] | – | – | 6.62% | 22.1% | -12.4% | 8.74% | – |
| O=C1NC(=S)NC(=O)C1=Cc1ccc(-c2ccc(Br)c(Cl)c2)o1 [Cmpd 9] | – | – | 19% | -4.22% | 28% | 88.4% | – |
| O=C(O)C(Cc1ccccc1)N1C(=O)/C(=C\c2ncc(-c3ccc(Cl)c(Cl)c3)o2)NC1=S (stereo not drawn) [Cmpd 78] | >250 µM | 250 µM (≈ 122 µg/mL) | – | – | – | – | – |
| O=C1Nc2ccccc2/C1=C1/SC(=S)N(C(Cc2ccccc2)C(=O)O)C1=O (stereo not drawn) [Cmpd 6] | – | – | 45.7% | 47.8% | 19.6% | 92.6% | – |
| COc1ccc(-c2nc(N3CCOCC3)c3sc(=O)n(-c4ccccc4)c3n2)cc1OC [Cmpd 8] | – | – | -8.82% | 1.47% | 5.32% | 35.5% | – |
| O=C1NC(=S)S/C1=C/c1ccc(-c2ccc3c(c2)C(=O)NC3=O)o1 [Cmpd 3] | – | – | -0.59% | 61.2% | 13.7% | 87.5% | – |
| O=C1NC(=S)NC(=O)C1=Cc1ccc(-c2cccc(Cl)c2)o1 [Cmpd 14] | – | – | 7.65% | 47.8% | 3.62% | 27.2% | – |
| CN1C(=O)/C(=C/c2ccc(-c3ccc(Br)c(Cl)c3)o2)C(=O)NC1=S [Cmpd 29] | – | – | 52.9% | 86.8% | 80% | 90.1% | – |
| O=C1NC(=S)NC(=O)C1=Cc1ccc(-c2ccc(F)cc2)o1 [Cmpd 20] | – | – | 25.1% | 56% | 17.1% | 28.7% | – |
| O=C1NC(=O)C(=Cc2ccc(Br)o2)C(=O)N1 [Cmpd 19] | – | – | 2% | 12.6% | 10.7% | 12.9% | inhibition at 3 µM (S. MRSA): -1.4%; inhibition at 3 µM (B. Anthracis; 3 μM): 3.33% |
| O=C(O)C(Cc1ccccc1)N1C(=O)/C(=C\c2ccc(-c3ccc(Cl)c(Cl)n3)o2)NC1=S (stereo not drawn) [Cmpd 76] | >250 µM | 62.5 µM (≈ 30.5 µg/mL) | – | – | – | – | – |
